Where a name gives a salt, the structure may show the parent alone.
For `COCCOC` [1,2-dimethoxyethane], the flash point was 0.00 °C. Work on `COCCO` [2-methoxyethanol] yielded a flash point of 42.00 °C. `CCCCC` [pentane] gave a flash point of -49.00 °C. For `CCCCCCCCCCCCCCCCC` [heptadecane], the flash point was 149.00 °C.

Remark: another data set of the same source
`COCCOC` [1,2-dimethoxyethane] showed a flash point of -2 °C. With `COCCO` [2-methoxyethanol] the flash point was 38 °C. With `CCCCC` [pentane] the flash point was -40 °C. `CCCCCCCCCCCCCCCCC` [heptadecane] showed a flash point of 148 °C. Molecule `OCCS` [2-mercaptoethanol] [listing 1 of 2 here] has a flash point of 68 °C. For `CCSC` [ethylmethylsulfide], the flash point was -18 °C. In the case of `C=CC(CC)CC` [3-ethyl-1-pentene], the flash point is reported as -17 °C.

Remark: another data set of the same source
`C=Cc1cccc(C)c1` [3-methylstyrene] showed a flash point of 51 °C. For `CC=Cc1ccc(OC)cc1` [anethole], the flash point was 90 °C. `CC(=O)CC(C)C` [4-methyl-2-pentanone] gave a flash point of 14 °C. With `CCCNCCC` [dipropylamine] the flash point was 7 °C. With `ClCC(Cl)Cl` [1,1,2-trichloroethane] the flash point was 32 °C. In the case of `Cc1cccc(I)c1` [1-iodo-3-methylbenzene], the flash point is reported as 82 °C. In the case of `CCCCCCCS` [1-heptanethiol], the flash point is reported as 41 °C. Molecule `O=C=Nc1ccccc1` [phenyl isocyanate] has a flash point of 51 °C. For `Cc1ccncc1` [4-methylpyridine], the flash point was 37 °C. Work on `CCc1ccc(CC)cc1` [1,4-diethylbenzene] yielded a flash point of 56 °C. In the case of `C=CC(=O)OCCCC` [2-propenoic acid, butyl ester], the flash point is reported as 37 °C. Work on `Ic1ccccc1` [iodobenzene] yielded a flash point of 74 °C. With `OCC(O)CO` [glycerol] the flash point was 184 °C. With `CNc1ccccc1` [N-methylaniline] the flash point was 80 °C. `c1ccc(CN(Cc2ccccc2)Cc2ccccc2)cc1` [tribenzylamine] gave a flash point of 203 °C. For `CCOC(=O)c1ccccc1` [ethyl benzoate], the flash point was 88 °C. Molecule `CCCCNC(C)=O` [N-butylacetamide] has a flash point of 116 °C. Molecule `CCC(C)C(C)C` (centres undefined) [2,3-dimethylpentane] has a flash point of -6 °C. `C=CC(=O)OCCCC` [butyl acrylate] gave a flash point of 39 °C. For `CCC(O)C(C)C` (centres undefined) [2-methyl-3-pentanol], the flash point was 46 °C. In the case of `CCCCSSCCCC` [dibutyl disulfide], the flash point is reported as 113 °C. In the case of `CCCCOCCOC(C)=O` [2-butoxyethyl acetate], the flash point is reported as 71 °C. Work on `CCC=C(C)C` [2-methyl-2-pentene] yielded a flash point of -23 °C. Molecule `CC(C)CO` [2-methyl-1-propanol] has a flash point of 27 °C. Work on `Cc1ccc(C)c(O)c1` [2,5-dimethylphenol] yielded a flash point of 95 °C. Molecule `CNC(C)C` [N-methyl-2-propanamine] has a flash point of -31 °C. Molecule `CCCCC=CCCCC` [5-decene] has a flash point of 46 °C. `FC1CCCCC1` [fluorocyclohexane] gave a flash point of 5 °C. For `CC=CCCCCC` [2-octene], the flash point was 14 °C. Work on `CNC` [dimethylamine] yielded a flash point of -18 °C. With `OCCCCCCO` [1,6-hexanediol] the flash point was 101 °C. `CCCCCCC(=O)OC` [methyl heptanoate] gave a flash point of 52 °C. For `CC=CCCC` [2-hexene], the flash point was -21 °C. With `CC(C)(C)SSC(C)(C)C` [di-tert-butyl disulfide] the flash point was 67 °C. `C=CC(=C)C` [2-methyl-1,3-butadiene] showed a flash point of -48 °C. Molecule `O=C1CCCCC1=O` [1,2-cyclohexanedione] has a flash point of 84 °C. In the case of `C=C(C)C(C)C` [2,3-dimethyl-1-butene], the flash point is reported as -18 °C. With `CCCCCC(O)CC` (centres undefined) [3-octanol] the flash point was 65 °C. Molecule `CCCCCC(=O)CC` [3-octanone] has a flash point of 53 °C. Molecule `C=C(C)C=O` [isobutenal] has a flash point of -0 °C. `C=CC1CCCCC1` [ethenylcyclohexane] gave a flash point of 22 °C. In the case of `Cc1ccc(C(C)C)cc1O` [carvacrol], the flash point is reported as 106 °C. `OCCS` [2-mercaptoethanol] [listing 2 of 2 here] gave a flash point of 73 °C. `CCCCCCCCCCCc1ccccc1` [undecylbenzene] gave a flash point of 144 °C. `C=C(C)CO` [2-methyl-2-propen-1-ol] gave a flash point of 33 °C. In the case of `CCN(C#N)CC` [diethylcyanamide], the flash point is reported as 69 °C. Work on `CC(C)(C)N` [tert-butylamine] yielded a flash point of -9 °C. Molecule `CCOS(=O)OCC` [diethyl sulfite] has a flash point of 53 °C. `CCCCCC(=O)CCCCC` [6-undecanone] showed a flash point of 88 °C. In the case of `Cc1cccc(Cl)c1` [3-chlorotoluene], the flash point is reported as 50 °C. Molecule `Cc1ccc(C)c(C)c1` [1,2,4-trimethylbenzene] has a flash point of 44 °C. With `C=C(C)C` [isobutene] the flash point was -76 °C. `COC(=O)C(C)C` [methyl isobutyrate] gave a flash point of 3 °C. For `CCOC(=O)CCl` [ethyl chloroacetate], the flash point was 53 °C. `CCCCCI` [1-iodopentane] showed a flash point of 43 °C. For `CCNC(C)=O` [N-ethylacetamide], the flash point was 110 °C. In the case of `CC(=O)SC(C)(C)C` [S-t-butyl thioacetate], the flash point is reported as 33 °C. `CCCCC(CC)CN` (centres undefined) [2-ethyl-1-hexanamine] showed a flash point of 50 °C. `CC(=O)OC(C)(C)C` [acetic acid, 1,1-dimethylethyl ester] showed a flash point of 16 °C. Work on `CCCC(=O)CC` [3-hexanone] yielded a flash point of 35 °C. With `C=C(C)C(=C)C` [2,3-dimethyl-1,3-butadiene] the flash point was -22 °C. `CCCCCOC(C)=O` [n-pentyl acetate] showed a flash point of 25 °C. `Cc1ccnc(C)c1` [2,4-dimethylpyridine] showed a flash point of 37 °C. For `Cc1ccccc1Cl` [2-chlorotoluene], the flash point was 43 °C. `SCCCCl` [3-chloro-1-propanethiol] showed a flash point of 43 °C. With `CCCCOC(=O)CC` [butyl propionate] the flash point was 32 °C. Molecule `Cc1ccccn1` [2-picoline] has a flash point of 28 °C. Molecule `CCCCOC(=O)c1ccccc1C(=O)OCCCC` [dibutyl phthalate] has a flash point of 117 °C. Work on `C=Cc1ccc(C)cc1` [4-methylstyrene] yielded a flash point of 45 °C. Work on `N#Cc1ccccc1` [benzonitrile] yielded a flash point of 75 °C. Work on `CN(C)CCCN` [N,N-dimethyl-1,3-propanediamine] yielded a flash point of 35 °C. For `CCCCCCCO` [1-heptanol], the flash point was 71 °C. Molecule `CCCCCCC(=O)O` [heptanoic acid] has a flash point of 112 °C. Molecule `CC(C)=CCCC(C)CC=O` (centres undefined) [citronellal] has a flash point of 75 °C. In the case of `C1=COCC1` [2,3-dihydrofuran], the flash point is reported as -24 °C. In the case of `OCCc1ccccc1` [2-phenylethanol], the flash point is reported as 102 °C. Molecule `C1=CCC=C1` [1,3-cyclopentadiene] has a flash point of 25 °C. Work on `CCCCC=C(C)C` [2-methyl-2-heptene] yielded a flash point of 8 °C. `Cc1ccc(O)c(C(C)(C)C)c1` [2-t-butyl-4-methylphenol] showed a flash point of 100 °C. With `CCCCCC#CC(=O)OC` [methyl 2-octynoate] the flash point was 88 °C. Molecule `C1CCC2OC2C1` (centres undefined) [cyclohexene oxide] has a flash point of 24 °C. `CCCCCCCCBr` [1-bromooctane] gave a flash point of 78 °C. `C=C(C)C=O` [2-methyl-2-propenal] gave a flash point of -15 °C. In the case of `CCC(=O)OC(C)(C)C` [t-butyl propionate], the flash point is reported as 20 °C. `COC(C)(C)C` [tert-butyl methyl ether] gave a flash point of -28 °C. In the case of `CCCCCCCBr` [1-bromoheptane], the flash point is reported as 60 °C. `Cc1ccc(N)cc1` [4-methylaniline] showed a flash point of 86 °C. Molecule `CN(C)CC1CCCCC1` [N,N-dimethylcyclohexanemethylamine] has a flash point of 48 °C. In the case of `Oc1ccc(O)cc1` [hydroquinone], the flash point is reported as 165 °C. `CCC(C)SC(C)CC` (centres undefined) [s-butyl sulfide] showed a flash point of 39 °C. Molecule `CC(C)(C)OC=O` [t-butyl formate] has a flash point of -9 °C. In the case of `C1CCSC1` [thiacyclopentane], the flash point is reported as 12 °C. `C=CCCBr` [4-bromo-1-butene] showed a flash point of 9 °C. `Cc1ccc(O)cc1` [p-cresol] gave a flash point of 86 °C. For `NC1CC1` [cyclopropylamine], the flash point was -25 °C. `C=C=C` [1,2-propadiene] gave a flash point of -101 °C. For `CSCc1ccccc1` [benzyl methyl sulfide], the flash point was 73 °C. In the case of `CCOC(=O)CC(C)=O` [3-oxobutanoic acid ethyl ester], the flash point is reported as 70 °C. In the case of `N#CC1CCCCC1` [cyclohexanecarbonitrile], the flash point is reported as 65 °C. Work on `CCC1(C)CCCC1` [1-ethyl-1-methylcyclopentane] yielded a flash point of 6 °C. In the case of `C=CC(C)O` (centres undefined) [3-buten-2-ol], the flash point is reported as 20 °C. Molecule `Sc1ccccc1` [benzenethiol] has a flash point of 50 °C. Molecule `CCN1CCCCC1` [1-ethylpiperidine] has a flash point of 18 °C. In the case of `Cc1cccc(C(C)(C)C)c1O` [2-t-butyl-6-methylphenol], the flash point is reported as 107 °C. Molecule `CC(Cl)(Cl)Cl` [1,1,1-trichloroethane] has a flash point of -1 °C. For `CC(Cl)CO` (centres undefined) [2-chloro-1-propanol], the flash point was 52 °C. `C=C(C)CCCCC` [2-methyl-1-heptene] gave a flash point of 10 °C. For `C=C(C)C(C)=O` [methyl isopropenyl ketone], the flash point was 13 °C. Molecule `N#CCCO` [3-hydroxypropanenitrile] has a flash point of 129 °C. In the case of `CCC(O)CC` [3-pentanol], the flash point is reported as 34 °C. Work on `CC1=CC2C(CC1)C2(C)C` (centres undefined) [2-carene] yielded a flash point of 38 °C. For `BrC(Br)Br` [bromoform], the flash point was 83 °C. Molecule `CCCCC(CC)CO` (centres undefined) [2-ethyl-1-hexanol] has a flash point of 77 °C. With `CC1=CC=CC1` [methylcyclopentadiene] the flash point was 26 °C. `CCCC(C)S` (centres undefined) [2-pentanethiol] gave a flash point of 9 °C. In the case of `CCCCOC(=O)CCCCCCCCC(=O)OCCCC` [dibutyl sebacate], the flash point is reported as 167 °C. With `CC(C)NC(C)C` [diisopropylamine] the flash point was -6 °C. In the case of `CCC(C)=O` [2-butanone], the flash point is reported as -9 °C. Molecule `c1ccc(CCc2ccccc2)cc1` [bibenzyl] has a flash point of 129 °C. `C=C(C)CCC` [2-methyl-1-pentene] gave a flash point of -26 °C. Molecule `CCC1CCCC1` [ethyl cyclopentane] has a flash point of 15 °C. Molecule `c1ccc2ncccc2c1` [quinoline] has a flash point of 105 °C. In the case of `OCCCCl` [3-chloro-1-propanol], the flash point is reported as 73 °C.
